Reference: ChEMBL document CHEMBL1201862, “PubChem BioAssay data set” (2004)
One block for each compound: values may come before it. Active and inactive are the calls of the source.

Legend:
[1] = IGROV1 cell killing – plate reader, dry powder samples, PAX8 inhibitor project, dose response (AID 743043); type: functional, cell-based; conditions: IGROV-1
[2] = OVCAR8 cell viability loss – plate reader, dry powder samples, PAX8 project, dose response (AID 743197); type: functional, cell-based; conditions: OVCAR-8
Paired box protein Pax-8 = Paired box protein Pax-8 (Homo sapiens, UniProt Q06710); assay: PAX8 transcriptional activity inhibition in RMG-I – RMG-I cells, luciferase, cherry-pick, dose response (AID 687027); type: functional, cell-based;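 note: luciferase reporter driven by Pax8 target thyroperoxidase promoter measured by SteadyGlo luminescence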
[3] = OVCAR-3 cell viability loss – plate reader, dry powder samples, PAX8 inhibitor project, dose response (AID 743044); type: functional, cell-based
[4] = biological target: Palmitoyl-protein thioesterase ABHD10, mitochondrial (Mus musculus, UniProt Q6PE15); assay: Late stage assay provider results from the probe development effort to identify inhibitors of PME-1: fluorescence-based dose response biochemical gel-based competitive Activity-Based Protein Profiling (ABPP) inhibition of ABHD10 Set 1.; type: functional
[5] = biological target: T1, Heat shock factor protein 1 (Mus musculus, UniProt P38532); assay: decrease of HSF1-responsive luciferase luminescence – cell-based, NIH3T3, dose retest, confirmation (AID 2382); type: functional;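 note: NIH3T3 fibroblasts with HSF1-driven luciferase reporter stressed by proteasome inhibitor MG132; luminescence from HSF1-driven luciferase expression after 8 hours of MG132 stress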
T1 sequence (P38532 whole entry): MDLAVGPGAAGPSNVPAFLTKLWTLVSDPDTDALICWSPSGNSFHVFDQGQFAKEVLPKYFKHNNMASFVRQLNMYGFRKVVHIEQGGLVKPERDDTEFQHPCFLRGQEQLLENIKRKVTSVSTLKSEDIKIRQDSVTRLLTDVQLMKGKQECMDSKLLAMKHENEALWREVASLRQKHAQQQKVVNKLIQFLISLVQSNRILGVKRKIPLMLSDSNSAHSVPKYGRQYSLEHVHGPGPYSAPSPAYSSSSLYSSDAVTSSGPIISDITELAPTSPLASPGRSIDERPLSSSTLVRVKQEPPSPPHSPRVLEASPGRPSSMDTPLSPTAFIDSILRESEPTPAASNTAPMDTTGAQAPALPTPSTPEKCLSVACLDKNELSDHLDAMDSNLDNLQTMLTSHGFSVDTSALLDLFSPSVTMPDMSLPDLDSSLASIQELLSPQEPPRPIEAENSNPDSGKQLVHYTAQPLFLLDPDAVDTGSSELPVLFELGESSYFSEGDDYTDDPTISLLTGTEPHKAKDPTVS

[6] = biological target: T2, Microphthalmia-associated transcription factor (Homo sapiens, UniProt O75030); assay: reducers of TRPM1 reporter luminescence, concentration series – cell-based, SK-MEL-5, cherry-picked, set 3, MITF inhibitor project, dose response (AID 493073); type: functional;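 note: SK-MEL-5 melanoma cells with luciferase driven by the MITF target TRPM1 promoter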
T2 sequence (O75030 whole entry): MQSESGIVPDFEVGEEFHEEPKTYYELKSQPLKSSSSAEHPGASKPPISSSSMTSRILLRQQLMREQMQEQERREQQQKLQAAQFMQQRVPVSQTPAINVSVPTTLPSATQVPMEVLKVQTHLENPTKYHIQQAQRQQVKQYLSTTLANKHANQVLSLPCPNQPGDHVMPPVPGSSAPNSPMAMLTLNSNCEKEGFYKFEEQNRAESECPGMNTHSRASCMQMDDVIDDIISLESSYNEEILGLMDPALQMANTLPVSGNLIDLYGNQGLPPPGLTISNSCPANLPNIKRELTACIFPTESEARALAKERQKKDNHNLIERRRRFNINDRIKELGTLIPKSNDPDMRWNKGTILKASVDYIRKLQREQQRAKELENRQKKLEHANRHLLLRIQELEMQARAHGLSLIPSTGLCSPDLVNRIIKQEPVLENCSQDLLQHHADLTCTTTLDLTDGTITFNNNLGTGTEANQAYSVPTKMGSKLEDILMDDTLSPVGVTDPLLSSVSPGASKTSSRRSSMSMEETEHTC

Vero = assay: viability loss in Vero cells – cell-based, plate reader, cherry-pick samples, cytotoxicity control, dose response (AID 687020); type: functional; conditions: Chlorocebus sabaeus
[7] = T. cruzi growth inhibition in host cells, dose response, cell-based, plate reader, dry powder, set 2 (AID 652275); type: functional
[8] = Counterscreen for inhibitors of Trypanosoma brucei methionyl tRNA synthetase (MetRS): Luminescence-based cell-based high throughput dose response assay to identify compounds that are cytotoxic to Jurkat human T lymphocyte cells.; type: functional
[9] = biological target: Induced myeloid leukemia cell differentiation protein Mcl-1 (Homo sapiens, UniProt Q07820); type: functional
[10] = biological target: T3, Methionyl-tRNA synthetase, putative (Trypanosoma brucei brucei, UniProt Q38C91); type: functional, Trypanosoma brucei brucei strain 927/4 GUTat10.1
[11] = biological target: T3, Methionyl-tRNA synthetase, putative; type: functional, Trypanosoma brucei brucei strain 927/4 GUTat10.1; remark: listed apart in the source

T3 sequence (Q38C91 whole entry): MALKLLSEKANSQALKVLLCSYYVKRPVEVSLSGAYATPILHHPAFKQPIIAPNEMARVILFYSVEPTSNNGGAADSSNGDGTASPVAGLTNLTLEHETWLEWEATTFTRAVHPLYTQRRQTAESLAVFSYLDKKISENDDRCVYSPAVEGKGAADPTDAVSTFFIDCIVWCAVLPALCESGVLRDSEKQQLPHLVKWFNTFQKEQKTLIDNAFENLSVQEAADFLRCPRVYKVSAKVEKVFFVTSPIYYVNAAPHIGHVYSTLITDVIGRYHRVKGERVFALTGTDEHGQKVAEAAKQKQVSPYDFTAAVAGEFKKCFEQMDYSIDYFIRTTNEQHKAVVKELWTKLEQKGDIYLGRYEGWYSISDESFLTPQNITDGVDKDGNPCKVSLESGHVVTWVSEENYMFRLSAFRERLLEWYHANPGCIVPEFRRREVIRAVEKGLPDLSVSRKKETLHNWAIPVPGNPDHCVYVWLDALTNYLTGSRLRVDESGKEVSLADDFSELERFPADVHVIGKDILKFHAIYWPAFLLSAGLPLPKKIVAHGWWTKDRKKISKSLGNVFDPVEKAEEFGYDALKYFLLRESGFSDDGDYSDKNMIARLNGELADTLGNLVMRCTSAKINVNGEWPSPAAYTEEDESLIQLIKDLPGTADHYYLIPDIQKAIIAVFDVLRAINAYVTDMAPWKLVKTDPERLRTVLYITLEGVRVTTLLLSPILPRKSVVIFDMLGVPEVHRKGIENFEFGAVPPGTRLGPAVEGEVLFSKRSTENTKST
Induced myeloid leukemia cell differentiation protein Mcl-1, sequence (Q07820 whole entry): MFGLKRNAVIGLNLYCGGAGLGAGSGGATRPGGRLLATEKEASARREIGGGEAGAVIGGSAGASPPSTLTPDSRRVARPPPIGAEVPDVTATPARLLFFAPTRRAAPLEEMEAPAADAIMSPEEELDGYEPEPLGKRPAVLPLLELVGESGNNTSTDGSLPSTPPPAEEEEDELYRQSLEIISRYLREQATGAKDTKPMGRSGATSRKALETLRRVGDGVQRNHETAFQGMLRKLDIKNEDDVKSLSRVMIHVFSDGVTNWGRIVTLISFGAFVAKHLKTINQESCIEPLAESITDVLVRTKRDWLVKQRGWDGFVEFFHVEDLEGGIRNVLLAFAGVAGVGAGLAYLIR
Palmitoyl-protein thioesterase ABHD10, mitochondrial, sequence (Q6PE15 whole entry): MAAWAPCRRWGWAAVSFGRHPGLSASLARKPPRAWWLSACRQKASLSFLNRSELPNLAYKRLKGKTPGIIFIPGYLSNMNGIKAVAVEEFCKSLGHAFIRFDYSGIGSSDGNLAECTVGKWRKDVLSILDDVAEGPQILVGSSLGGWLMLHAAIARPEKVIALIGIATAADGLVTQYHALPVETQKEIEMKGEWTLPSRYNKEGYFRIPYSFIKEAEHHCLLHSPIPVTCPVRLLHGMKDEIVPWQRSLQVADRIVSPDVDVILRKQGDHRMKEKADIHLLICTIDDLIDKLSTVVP
Paired box protein Pax-8, sequence (Q06710 whole entry): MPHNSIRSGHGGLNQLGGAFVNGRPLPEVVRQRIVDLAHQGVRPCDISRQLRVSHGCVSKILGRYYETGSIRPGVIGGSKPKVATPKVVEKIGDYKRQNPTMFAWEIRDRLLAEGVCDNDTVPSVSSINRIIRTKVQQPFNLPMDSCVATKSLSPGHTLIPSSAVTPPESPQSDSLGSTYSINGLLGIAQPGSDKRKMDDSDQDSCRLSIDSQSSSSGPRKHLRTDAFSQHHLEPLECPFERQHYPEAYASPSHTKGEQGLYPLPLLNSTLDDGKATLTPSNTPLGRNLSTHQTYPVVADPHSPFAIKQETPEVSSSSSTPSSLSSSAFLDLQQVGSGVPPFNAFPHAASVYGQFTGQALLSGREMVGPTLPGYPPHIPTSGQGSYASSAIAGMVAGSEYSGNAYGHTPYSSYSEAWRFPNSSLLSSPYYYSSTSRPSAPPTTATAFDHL

SMILES: C[C@@H]1CN([C@@H](C)CO)C(=O)Cc2cc(NS(=O)(=O)c3ccc(Cl)cc3)ccc2O[C@H]1CN(C)Cc1ccc(Oc2ccccc2)cc1
AC50 [1]: 25.9 µM (active)
AC50 [2]: 26.7 µM (active)
AC50 (Paired box protein Pax-8): 6.27 µM (active)
AC50 [3]: 22.5 µM (active)

IC50 [4]: 0.173 µM (active)
EC50 [5]: > 195 µM (not active)
AC50 [6]: 12.5 µM (active)
SMILES: CCOC(=O)N1C(=O)[C@@](CC)(c2ccccc2)N1C(=O)OCC

SMILES: Cc1cccc(N(C(=O)Cn2nnc3ccccc32)C(C(=O)NC(C)(C)C)c2ccsc2)c1 (stereo not drawn)
AC50 (Vero): 31.3 µM (active)

SMILES: CN(C)CC#Cc1cccc(-c2nc(C(=O)NCc3ccc(Oc4ccccc4)cc3)cc3c2[C@H](CCO)N([S+]([O-])C(C)(C)C)C3)c1 (stereo partly drawn)
AC50 [7]: 0.746 µM (active)

SMILES: COc1ccc(N2CCC(CNC(=O)Nc3ccc(Cl)cc3)C2)cc1 (stereo not drawn)
IC50 [8]: 83.3 µM (inactive)
IC50 [9]: > 54 µM (not active)
IC50 [10]: 38.4 µM (inactive)
IC50 [11]: 27.3 µM (inactive)
